Structures are written as SMILES. Several values for one entry are separate records, joined by “and”; a condition that tells them apart may be missing. Identical values can stand only once.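 How tested: cells in 96-well plates exposed to compound for 48 hours at five concentrations. GI50 is the concentration that inhibits growth by half. TGI denotes the concentration required for complete inhibition of growth.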

In PubChem BioAssay (NCI) one finds GI50 and TGI data, which are given here for 13 compounds.

Among the test systems are A549 NSCLC; IGROV1 ovarian; U251 CNS; PC-3 prostate; OVCAR-4 ovarian; HT29 colon; SN12C renal; NCI-H23 lung; SNB-75 CNS; HL-60(TB) leukemia.
Holding throughout (assay): NCI-60 cell line screen, 48 h

For the compound `O=C(/C=C/c1ccco1)c1ccc(Nc2nc(Nc3ccc(F)cc3)nc(Nc3ccc(Cl)cc3)n2)cc1`, the GI50 in the assay on A549 NSCLC was 22.3 µM; with IGROV1 ovarian, 25.8 µM; in the assay on U251 CNS it was 19.5 µM; in the assay on PC-3 prostate, 1.54 µM; with OVCAR-4 ovarian it was 27.1 µM; with HT29 colon, 15.6 µM. Further, the GI50 with SN12C renal was 45.6 µM; in the assay with NCI-H23 lung it was 17.9 µM; with SNB-75 CNS, 30.5 µM; in the assay on HL-60(TB) leukemia, greater than 42.3 µM. For the same compound, the TGI is greater than 100 µM in the assay on A549 NSCLC; greater than 81 µM in the assay on IGROV1 ovarian; 53.8 µM in the assay with U251 CNS; greater than 37.9 µM in the assay on PC-3 prostate; greater than 88.3 µM in the assay on OVCAR-4 ovarian; greater than 89.7 µM in the assay on HT29 colon. Besides, the TGI in the assay with SN12C renal was greater than 100 µM; with NCI-H23 lung, greater than 63.4 µM; in the assay on SNB-75 CNS it was greater than 80.9 µM; in the assay on HL-60(TB) leukemia, 98.8 µM.

In the case of `Cc1ccc(Nc2nc(NCCO)c3ccccc3n2)cc1C`, the GI50 is 5.4 µM in the assay with A549 NSCLC; 9.65 µM in the assay on IGROV1 ovarian; 2.75 µM in the assay on U251 CNS; 4.24 µM with PC-3 prostate; 3.14 µM in the assay with OVCAR-4 ovarian; 3.25 µM in the assay with HT29 colon. Also, the GI50 is 10.3 µM in the assay on SN12C renal, 9.74 µM in the assay with NCI-H23 lung, 8.14 µM in the assay with SNB-75 CNS and 11 µM in the assay on HL-60(TB) leukemia. In addition, the TGI with A549 NSCLC is 22.7 µM; with IGROV1 ovarian, 23.8 µM; in the assay on U251 CNS it was 12.1 µM; with PC-3 prostate, 16.7 µM; with OVCAR-4 ovarian it was 15.6 µM; in the assay on HT29 colon it was 10.6 µM. Moreover, the TGI with SN12C renal amounted to 24.4 µM; in the assay with NCI-H23 lung, 22.5 µM; in the assay with SNB-75 CNS, 20.9 µM; in the assay with HL-60(TB) leukemia, 31 µM.

Consider `Cn1ccnc1C(=O)/C=C/c1ccc(CC(=O)Nc2ccc(Cl)cc2)cc1`, for which the GI50 is 11.5 µM with A549 NSCLC; 5.27 µM with IGROV1 ovarian; 1.1 µM with U251 CNS; 1.37 µM in the assay with PC-3 prostate; 2.18 µM in the assay with OVCAR-4 ovarian; 0.889 µM in the assay on HT29 colon. In addition, the GI50 in the assay with SN12C renal is 3.04 µM; in the assay on NCI-H23 lung, 2.04 µM; in the assay with SNB-75 CNS it was 1.9 µM; in the assay with HL-60(TB) leukemia, 4.81 µM. The TGI in the assay on A549 NSCLC, in the assay with IGROV1 ovarian, in the assay with U251 CNS, in the assay with PC-3 prostate, in the assay with OVCAR-4 ovarian and in the assay with HT29 colon was greater than 25 µM throughout. Besides, the TGI in the assay with SN12C renal, in the assay with NCI-H23 lung, in the assay on SNB-75 CNS and in the assay with HL-60(TB) leukemia was greater than 25 µM throughout.

Take `C[Si](C)(C)C#CCO[Si](C)(C)C`: the TGI was greater than 100 µM with A549 NSCLC; 36.8 µM in the assay with IGROV1 ovarian; greater than 100 µM in the assay with U251 CNS; greater than 100 µM in the assay with PC-3 prostate; greater than 100 µM in the assay with OVCAR-4 ovarian; greater than 100 µM in the assay on HT29 colon. The TGI was greater than 100 µM with SN12C renal, greater than 100 µM in the assay with NCI-H23 lung, greater than 100 µM with SNB-75 CNS and greater than 61 µM in the assay on HL-60(TB) leukemia.

On to `O=C1OC(c2ccco2)=N/C1=C\c1ccc(Cl)c(Cl)c1`, for which the TGI in the assay with A549 NSCLC, in the assay on IGROV1 ovarian, with U251 CNS, in the assay with PC-3 prostate, with OVCAR-4 ovarian and in the assay on HT29 colon was greater than 100 µM throughout. Further, the TGI in the assay on SN12C renal, with NCI-H23 lung, with SNB-75 CNS and in the assay on HL-60(TB) leukemia was greater than 100 µM in each case.

`O=C(Nc1ccc(Cl)c([N+](=O)[O-])c1)Nc1nc2ccccc2s1`: the GI50 in the assay with A549 NSCLC is 3.37 µM; with IGROV1 ovarian, 3.62 µM; in the assay on U251 CNS it was 3.36 µM; with PC-3 prostate it was 3.43 µM; with OVCAR-4 ovarian, 4.21 µM; with HT29 colon, 3.51 µM. Besides, the GI50 is 3.74 µM in the assay on SN12C renal, 2.4 µM with NCI-H23 lung, 3.97 µM in the assay with SNB-75 CNS and 4.48 µM with HL-60(TB) leukemia. Further, the TGI amounted to 13 µM with A549 NSCLC; 17.4 µM in the assay on IGROV1 ovarian; 13.4 µM in the assay on U251 CNS; 13 µM in the assay on PC-3 prostate; 26 µM in the assay on OVCAR-4 ovarian; 11.6 µM in the assay on HT29 colon. The TGI with SN12C renal stood at 19 µM; with NCI-H23 lung, 9.05 µM; with SNB-75 CNS it was 15.4 µM; in the assay on HL-60(TB) leukemia, 24 µM.

Turning to `O=[N+]([O-])c1ccc(N2CCN(Cc3ccccc3)CC2)c2c1no[n+]2[O-]`, the GI50 was 1.5 µM in the assay with A549 NSCLC; 0.951 µM in the assay with IGROV1 ovarian; 1.24 µM in the assay with U251 CNS; 1.25 µM in the assay with PC-3 prostate; 1.37 µM in the assay with OVCAR-4 ovarian; 0.829 µM in the assay on HT29 colon. The GI50 in the assay on SN12C renal was 1.63 µM; in the assay with NCI-H23 lung, 1.98 µM; in the assay on SNB-75 CNS, 0.954 µM; in the assay with HL-60(TB) leukemia, 0.473 µM. Also, the TGI in the assay on A549 NSCLC was found to be 3.19 µM; with IGROV1 ovarian it was 2.66 µM; in the assay on U251 CNS it was 2.65 µM; in the assay on PC-3 prostate it was 2.7 µM; with OVCAR-4 ovarian, 3.07 µM; in the assay with HT29 colon it was 2.12 µM. Besides, the TGI with SN12C renal stood at 3.53 µM; with NCI-H23 lung it was 5.68 µM; with SNB-75 CNS, 2.26 µM; in the assay on HL-60(TB) leukemia it was 2.99 µM.

For `CN(N=O)C(=O)Nc1c[nH]c(=O)[nH]c1=O`, the TGI with A549 NSCLC, with IGROV1 ovarian, in the assay with U251 CNS, in the assay with PC-3 prostate, in the assay with OVCAR-4 ovarian and in the assay on HT29 colon was greater than 100 µM throughout. Besides, the TGI with SN12C renal, in the assay with NCI-H23 lung, in the assay with SNB-75 CNS and with HL-60(TB) leukemia was greater than 100 µM throughout.

On to `Cc1[nH]c(=O)[nH]c(=O)c1N(CCF)CCCl`, for which the GI50 in the assay with A549 NSCLC was 335 µM and 455 µM; in the assay on IGROV1 ovarian, 284 µM; with U251 CNS it was 212 µM; in the assay on OVCAR-4 ovarian, 230 µM; in the assay with SN12C renal it was 159 µM and 120 µM and 312 µM; in the assay with NCI-H23 lung it was 255 µM and 512 µM. For the same compound, the GI50 was 268 µM and 592 µM and 493 µM in the assay with SNB-75 CNS; 42.6 µM in the assay with HL-60(TB) leukemia. In addition, the TGI in the assay with A549 NSCLC was 990 µM and 1210 µM and 1850 µM; with IGROV1 ovarian, 793 µM and 1260 µM and 1270 µM; with U251 CNS, 693 µM and 1220 µM and 1200 µM; with PC-3 prostate it was 954 µM; with OVCAR-4 ovarian, 461 µM and 755 µM; in the assay with HT29 colon it was 1370 µM and 1230 µM. Also, the TGI in the assay with SN12C renal was 480 µM and 641 µM and 1020 µM; in the assay on NCI-H23 lung it was 635 µM and 2500 µM and 631 µM; with SNB-75 CNS it was 617 µM and 1420 µM and 1010 µM; with HL-60(TB) leukemia, 246 µM and 302 µM and 219 µM.

Consider `Cc1ccc(C)c(NC(=O)C(=O)C(c2cnc3ccc([N+](=O)[O-])cc3n2)[N+](=O)[O-])c1` (configuration not stated), for which the TGI was greater than 100 µM in the assay with A549 NSCLC; 83.8 µM in the assay with IGROV1 ovarian; greater than 100 µM with U251 CNS; greater than 100 µM in the assay with PC-3 prostate; 38.2 µM with OVCAR-4 ovarian; greater than 100 µM in the assay on HT29 colon. The TGI in the assay on SN12C renal was greater than 100 µM; in the assay on NCI-H23 lung it was greater than 100 µM; in the assay with SNB-75 CNS it was greater than 100 µM; with HL-60(TB) leukemia, 45.2 µM.

Regarding `COc1ccc(CN2C(=O)/C(=C\c3cc(OC)c(OC)c(OC)c3)c3cc(OC)ccc32)cc1`, the GI50 is 2.74 µM in the assay on A549 NSCLC; 1.8 µM in the assay with IGROV1 ovarian; 1.38 µM with U251 CNS; 3.35 µM with PC-3 prostate; 3.5 µM with OVCAR-4 ovarian; 2.19 µM in the assay with HT29 colon. Besides, the GI50 in the assay on SN12C renal was 3.53 µM; in the assay with NCI-H23 lung, 1.84 µM; in the assay on SNB-75 CNS, 2.17 µM; in the assay with HL-60(TB) leukemia, 3.28 µM. Also, the TGI in the assay on A549 NSCLC was found to be 8.62 µM; in the assay on IGROV1 ovarian, 4.06 µM; in the assay with U251 CNS, 2.67 µM; with PC-3 prostate it was 19.5 µM; in the assay with OVCAR-4 ovarian, 27.4 µM; in the assay with HT29 colon, 4.45 µM. Further, the TGI in the assay on SN12C renal was greater than 39.4 µM; in the assay with NCI-H23 lung it was 3.85 µM; in the assay with SNB-75 CNS, 6.62 µM; with HL-60(TB) leukemia it was greater than 28.5 µM.

For `CNc1ccccc1C(=O)N/N=C/C=C/c1ccccc1`, the GI50 in the assay on A549 NSCLC was 1.06 µM; in the assay with IGROV1 ovarian, 4.41 µM; in the assay on U251 CNS it was 1.19 µM; in the assay on PC-3 prostate, 2.56 µM; in the assay on OVCAR-4 ovarian, 5.61 µM; with HT29 colon, 0.373 µM. Besides, the GI50 in the assay on SN12C renal was 3.22 µM; in the assay with NCI-H23 lung it was 7.93 µM; in the assay with SNB-75 CNS it was 0.673 µM; in the assay with HL-60(TB) leukemia, 0.566 µM. Besides, the TGI in the assay with A549 NSCLC is greater than 100 µM; in the assay on IGROV1 ovarian it was greater than 100 µM; in the assay with U251 CNS, 34.8 µM; in the assay on PC-3 prostate, greater than 100 µM; with OVCAR-4 ovarian it was greater than 48.5 µM; in the assay with HT29 colon it was 12.9 µM. Besides, the TGI in the assay with SN12C renal was greater than 100 µM; with NCI-H23 lung, greater than 100 µM; in the assay on HL-60(TB) leukemia it was 18.5 µM.

As for `Oc1c(CN2CCC(N3CCOCC3)CC2)cc(Cc2cc(CN3CCC(N4CCOCC4)CC3)c(O)c3ncccc23)c2cccnc12`, the GI50 is 1.62 µM with A549 NSCLC; 0.61 µM in the assay with IGROV1 ovarian; 0.385 µM in the assay on U251 CNS; 0.565 µM with PC-3 prostate; 0.434 µM in the assay on OVCAR-4 ovarian; 0.709 µM in the assay on HT29 colon. In addition, the GI50 in the assay with SN12C renal is 0.67 µM; in the assay with NCI-H23 lung, 2.07 µM; with SNB-75 CNS it was 2.57 µM; with HL-60(TB) leukemia, 0.789 µM. In addition, the TGI was 12.5 µM in the assay with A549 NSCLC; 48.2 µM in the assay with IGROV1 ovarian; 17.6 µM with U251 CNS; greater than 100 µM with PC-3 prostate; greater than 100 µM in the assay on OVCAR-4 ovarian; 22.3 µM in the assay with HT29 colon. The TGI is greater than 100 µM in the assay with SN12C renal, greater than 100 µM in the assay with NCI-H23 lung, 38.2 µM in the assay on SNB-75 CNS and 3.71 µM in the assay with HL-60(TB) leukemia.
